The source of these data is patent US20260344665A1, “FUNGICIDAL COMPOUND” (priority 2022, published 2026).

The structures appear in SMILES notation.

For series [1], the system named is Blumeria graminis f.sp. tritici. Description: Powdery mildew assay in wheat (haustoria formation). The settings on record: Blumeria graminis, 48 h, read-out: haustoria formation (% relative to control). The class given is in vivo.
Series [2] deals with ROS production in wheat leaf discs. Description: Reactive oxygen species (ROS) burst assay with wheat leaf discs. The following applies: INA 100 μM; treated vs. control, 40 minutes.
Series [3] deals with Puccinia recondita f. sp. tritici. Description: Leaf painting assay in wheat seedling, Puccinia recondita preventive. The class given is in vivo. The following applies: 188.00 ppm, preventive. The method, then:
(§1) Wheat seedlings of the variety Riband (for Zymoseptoria tritici trials) or variety Arina (for Puccinia recondite trials) were grown in the glasshouse until 14d after seeding. At this time, such seedlings usually have a first leaf fully emerged (designated L1), a second leaf fully emerged (L2) and a third leaf (L3) that is partially emerged and in the process of development. Using a permanent pen, two dots were applied on the second leaf such as to generate three segments of roughly equal size: Segment A (at the base), segment B (middle part) and segment C (tip of the leaf). A stock solution of the compound of Formula (I) was produced in water and of benzovindiflupyr in DMSO at a concentration of 10,000 ppm. […] The diluted compound was applied to the middle segment of L2 using a conventional cotton stick; the cotton stick was soaked in the diluted compound and rubbed several times on the adaxial leaf surface between the two marks. One day later, the complete plant was inoculated with a fungal spore suspension using a paint brush. The spore suspension was applied until before run-off.
For infection with Puccinia recondita (preventive): The test plants were inoculated by spraying them with a spore suspension one day after application (spore suspension at 80,000 spores per ml in water supplemented with Tween20 at 0.1%). After an incubation period of 1 day at 20 °C and 95% rh, the inoculated test plants were kept at 20 °C and 60% rh in a greenhouse.
(§2) The three segments of the leaf were evaluated individually.

Series [4] relates to Zymoseptoria tritici. Description: Leaf painting assay in wheat seedling, Zymoseptoria tritici preventive. The following applies: Experiment 1; 188.00 ppm; tip segment; preventive. The class given is in vivo. The method, then: as §1
For infection with Zymoseptoria tritici (preventive), the test plants were inoculated by spraying a spore suspension on them one day after application (1.5 Mio spores per ml in water supplemented with 0.01% Tween20). After an incubation period of 4 days at 22 °C/21 °C (day/night) and 95% rh, the inoculated test plants were kept at 22 °C/21 °C (day/night) and 70% rh in a greenhouse.
as §2

The subject of series [5] is Puccinia recondita. Description: Mixture with malonomicin, leaf disc, Puccinia recondita preventive. The class given is in vivo. An excerpt:
(§3) An additional ingredient having pesticidal activity, for instance fungicidal activity may result in an unexpected synergistic activity. […] The action to be expected E for a given active ingredient combination obeys the so-called COLBY formula and can be calculated as follows (COLBY, S. R. “Calculating synergistic and antagonistic responses of herbicide combination”. Weeds, Vol. 15, pages 20-22; 1967): • ppm=milligrams of active ingredient (=a.i.) per liter of spray mixture • X=% action by active ingredient A) using p ppm of active ingredient • Y=% action by active ingredient B) using q ppm of active ingredient.
(§4) According to COLBY, the expected (additive) action of active ingredients A)+B) using p+q ppm of active ingredient is:
(§5) In mathematical terms, synergism corresponds to a positive value for the difference of (O-E). In the case of purely complementary addition of activities (expected activity), said difference (O-E) is zero. A negative value of said difference (O-E) signals a loss of activity compared to the expected activity.
(§6) A stock solution for oligosaccharide compound according to the present invention was produced in water plus 0.025% Tween®20. Malonomicin was produced according to Law et al, 2018 (Nature Catalys is | VOL 1 | DECEMBER 2018 | 977-984). A stock solution of malonomicin was produced in water plus 0.025% Tween®20.
(§7) Assays to test efficacy of mixtures of the compound of Formula (I) in combination with malonomicin on the control of fungal pathogens in a leaf disc assay were designed for two 24 well plates.
(§8) Table 8 and 9: Outline of 24 well testplate (1) and testplate (2) including concentration of compounds sprayed per well. The upper number in the cell indicates the oligosaccharide compound of the present invention concentration (ppm), the lower number malonomicin concentration (ppm). Column (1) holds a dilution series of compound of Formula (I), row (2-D) hold a dilution series of malonomicin. Well 2-D-(1) represents an untreated check. This design was applied for tests including Puccinia recondita (EPPO code: PUCCRE) with preventive and curative spray timing.
A first set of master plates with 1× concentrated spray solution of the compound of Formula (I) stock diluted in water with concentrations according to Table 8, Table 9, Table 11 and Table 12, respectively, was prepared. Each well contained 0.025% Tween®20. Accordingly, a second set of master plates with 1× concentrated malonomicin stock diluted in water was prepared. Each well of the second set contained 0.025% Tween®20. Leaf segments placed on agar in 24 well plates are sprayed with 8 ul of solution from the master plate containing compound of Formula (I) and the leaf segments were let to dry, followed 2 hours later by 8 ul of solution from the master plate containing malonomicin. After second sprays have dried, leaf segments are infected with fungal spores to obtain a preventive application timing. Alternatively, leaf segments infected one day before spray of the compounds are used, resulting in a curative spray timing. […] For each leaf segment percent leaf coverage of disease symptoms was assessed. Percent leaf coverage reduction relative to the untreated check was calculated. […]
Wheat (cultivar Kanzler) leaf segments are placed on agar in multiwell plates (24-well format) and sprayed with test solutions (8 ul per well). […] After appropriate incubation the activity of a compound is assessed 8 dpi (days after inoculation) as preventive fungicidal activity.

Series [6] relates to Puccinia recondita. Description: Mixture with malonomicin, leaf disc, Puccinia recondita curative. The class given is in vivo. The settings on record: foliar, 192 h, read-out: control of fungal growth.
Source text: as §3, §4, §5, §6, §7, §8
(§9) A first set of master plates with 1× concentrated spray solution of the compound of Formula (I) stock diluted in water with concentrations according to Table 8, Table 9, Table 11 and Table 12, respectively, was prepared. Each well contained 0.025% Tween®20. Accordingly, a second set of master plates with 1× concentrated malonomicin stock diluted in water was prepared. Each well of the second set contained 0.025% Tween®20. Leaf segments placed on agar in 24 well plates are sprayed with 8 ul of solution from the master plate containing compound of Formula (I) and the leaf segments were let to dry, followed 2 hours later by 8 ul of solution from the master plate containing malonomicin. After second sprays have dried, leaf segments are infected with fungal spores to obtain a preventive application timing. Alternatively, leaf segments infected one day before spray of the compounds are used, resulting in a curative spray timing. In addition, several plates were produced where leaf segments were sprayed 2× in absence of test compound (with only Tween®20), representing the untreated check samples. For each leaf segment percent leaf coverage of disease symptoms was assessed. Percent leaf coverage reduction relative to the untreated check was calculated. Efficacy of the mixtures was tested in duplicate and on different fungal species. Reported efficacy values are the average of two replicate results.
Puccinia recondita (EPPO Code: PUCCRE) with Curative Spray Timing.
Wheat (cultivar Kanzler) leaf segments are placed on agar in multiwell plates (24-well format). The leaf disks are then inoculated with a spore suspension of the fungus. One day after inoculation the test solution is sprayed (8 ul per well). After appropriate incubation the activity of a compound is assessed 8 dpi (days after inoculation) as curative fungicidal activity

Series [7] concerns Blumeria graminis f.sp. tritici. Description: Mixture with malonomicin, leaf disc, Blumeria graminis f.sp. tritici preventive. The class given is in vivo. The settings on record: foliar, 168 h, read-out: control of fungal growth.
Source text: as §6, §7
(§10) Table 11 and Table 12: Outline of 24 well testplate (3) and testplate (4) including concentration of compounds per well. The upper number in the cell indicates the oligosaccharide compound of the present invention concentration (ppm), the lower number malonomicin concentration (ppm). Column (1) holds a dilution series of compound of Formula (I), row (4-D) hold a dilution series of malonomicin. Well 4-D-(1) represents an untreated check. This design was applied for tests including Blumeria graminis f.sp. tritici (EPPO code: ERYSGT) with preventive spray timing and Parastagonospora nodorum (EPPO code: LEPTNO) with preventive spray timing.
as §9
Blumeria graminis f.sp. tritici (EPPO Code: ERYSGT) with Preventive Spray Timing
Wheat (cultivar Kanzler) leaf segments are placed on agar in multiwell plates (24-well format) and sprayed with test solutions (8 ul per well). After drying, the leaf disks are inoculated with spores of the fungus. After appropriate incubation the activity of a compound is assessed 7 dpi (days post inoculation) as preventive fungicidal activity.

Series [8] has as its system Parastagonospora nodorum. Description: Mixture with malonomicin, leaf disc, Parastagonospora nodorum preventive. The class given is in vivo.
Source text: as §6, §7, §10, §9
Parastagonospora nodorum (EPPO Code: LEPTNO)
Wheat (cultivar Kanzler) leaf segments are placed on agar in multiwell plates (24-well format) and sprayed with test solutions (8 ul per well). After drying, the leaf disks are inoculated with a spore suspension of the fungus. After appropriate incubation the activity of a compound is assessed 4 dpi (days after inoculation) as preventive fungicidal activity.

Take `O=C(O)c1cc(Cl)nc(Cl)c1` [INA, 2.6-dichloro-isonicotinic acid, reference compound]: the activity at 100 µM in series [1] was found to be 27.6%. In addition, in series [2], the “Fold change (peak ROS)” value was determined as 1.8.
For `Cn1cc(C(=O)Nc2cccc3c2C2CCC3C2=C(Cl)Cl)c(C(F)F)n1` (centres unmarked) [benzovindiflupyr, reference compound], the “% reduction fungal growth” value in series [3] (Experiment 2, base segment) was determined as 7%; in series [3] (Experiment 2, middle segment (treated)), 100%; in series [3] (Experiment 2, tip segment) it was 100%; in series [3] (Experiment 3, base segment) it was 21%; in series [3] (Experiment 3, middle segment (treated)), 100%; in series [3] (Experiment 3, tip segment) it was 100%. For the same molecule, the “% reduction fungal growth” value was determined as 3% in series [3] (Experiment 4, base segment); 100% in series [3] (Experiment 4, middle segment (treated)); 100% in series [3] (Experiment 4, tip segment); 99% in series [4].
In the case of `NC[C@@H]1NC(=O)C(C(=O)CC(NC(=O)[C@@H](N)CO)(C(=O)O)C(=O)O)=C1O` [malonomicin, {[(2S)-2-amino-3-hydroxypropanoyl]amino} {2-[(5S)-5-(aminomethyl)-4-hydroxy-2-oxo-2,5-dihydro-1H-pyrrol-3-yl]-2-oxoethyl} malonic acid, reference compound], the “control of fungal growth” value in series [5] (malonomicin 0.74 ppm solo) came out at 0%; in series [5] (malonomicin 2.22 ppm solo), 10%; in series [5] (malonomicin 6.67 ppm solo), 80%; in series [5] (malonomicin 20 ppm solo), 100%; in series [5] (malonomicin 200 ppm solo), 100%; in series [8] (malonomicin 7.4 ppm solo), 0%. The “control of fungal growth” value in series [8] (malonomicin 22.2 ppm solo) is recorded as 45%; in series [8] (malonomicin 66.7 ppm solo), 50%; in series [8] (malonomicin 200 ppm solo), 90%; in series [8] (malonomicin 600 ppm solo) it was 95%. Besides, in series [6] (malonomicin 0.74 ppm solo), the inhibition of growth at 0.74 µg/mL stood at 35%. For the same molecule, in series [6] (malonomicin 2.22 ppm solo), the inhibition of growth at 2.22 µg/mL was found to be 70%. Moreover, in series [6] (malonomicin 6.67 ppm solo), the inhibition of growth at 6.67 µg/mL stood at 100%. For the same molecule, the inhibition of growth at 20 µg/mL in series [6] (malonomicin 20 ppm solo) is 100%. Also, the inhibition of growth at 200 µg/mL in series [6] (malonomicin 200 ppm solo) and in series [7] (malonomicin 200 ppm solo) was 100% throughout. In addition, the inhibition of growth at 7.4 µg/mL in series [7] (malonomicin 7.4 ppm solo) amounted to 0%. The inhibition of growth at 22.2 µg/mL in series [7] (malonomicin 22.2 ppm solo) worked out at 0%. Also, the inhibition of growth at 66.7 µg/mL in series [7] (malonomicin 66.7 ppm solo) came to 70%. For the same molecule, in series [7] (malonomicin 600 ppm solo), the inhibition of growth at 600 µg/mL amounted to 75%.
